For six compounds, TGI results are on record in PubChem BioAssay (NCI).

Test systems include ACHN renal; DMS 273 small cell lung; EKVX NSCLC; M19-MEL melanoma; NCI-H23 lung; OVCAR-8 ovarian; SK-MEL-2 melanoma; UO-31 renal; A498 renal; SK-MEL-5 melanoma; PC-3 prostate.
What all share (assay): growth of human tumour cells (NCI), 48 h

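Exposure lasted 48 hours, with cells grown in 96-well plates and compounds tested at five concentrations. The concentration for full growth arrest is given as TGI.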

As for `Cc1cn(C2CC(O)C(CO)C2C)c(=O)[nH]c1=O` (stereo not drawn), the TGI in the assay on ACHN renal, in the assay on DMS 273 small cell lung, with EKVX NSCLC, in the assay on M19-MEL melanoma, in the assay with NCI-H23 lung and in the assay on OVCAR-8 ovarian was > 100 µM in each case. The TGI in the assay with SK-MEL-2 melanoma and in the assay with UO-31 renal was > 100 µM in each case.

Turning to `CO/C(=N\N=C\c1ccc(Cl)cc1)c1ccncc1`, the TGI in the assay on A498 renal, in the assay on ACHN renal, in the assay with DMS 273 small cell lung, in the assay on EKVX NSCLC, in the assay with NCI-H23 lung and in the assay with OVCAR-8 ovarian was > 100 µM in each case. The TGI in the assay with SK-MEL-2 melanoma, with SK-MEL-5 melanoma and in the assay with UO-31 renal was > 100 µM throughout.

Regarding `CN(C)N=Nc1ccc([N+](=O)[O-])cc1C(N)=O`, the TGI in the assay on A498 renal, in the assay on DMS 273 small cell lung, with EKVX NSCLC, with M19-MEL melanoma, with NCI-H23 lung and with OVCAR-8 ovarian was > 100 µM throughout. Also, the TGI with SK-MEL-2 melanoma, in the assay on SK-MEL-5 melanoma and with UO-31 renal was > 100 µM in each case.

For `CC(C)(C)C#C[P+](c1ccccc1)(c1ccccc1)c1ccccc1`, the TGI in the assay on A498 renal was determined as 1.35 µM; in the assay with ACHN renal it was 10.3 µM; in the assay with EKVX NSCLC, 4.1 µM; with M19-MEL melanoma, 1.14 µM; in the assay on NCI-H23 lung, 1.38 µM; in the assay with OVCAR-8 ovarian it was 1.67 µM. The TGI in the assay with SK-MEL-2 melanoma turned out to be 1.45 µM; with SK-MEL-5 melanoma, 0.634 µM; with UO-31 renal, 7.28 µM.

With `COc1ccc(-c2oc3ccc(C)cc3c(=O)c2O)cc1`, the TGI in the assay with A498 renal was > 100 µM; with ACHN renal, > 100 µM; in the assay on EKVX NSCLC, > 100 µM; in the assay on NCI-H23 lung, > 100 µM; in the assay on OVCAR-8 ovarian it was 79.3 µM; in the assay on PC-3 prostate it was > 100 µM. For the same compound, the TGI in the assay on SK-MEL-2 melanoma, in the assay on SK-MEL-5 melanoma and in the assay with UO-31 renal was > 100 µM each time.

For the compound `COc1ccc2oc(S(=O)(=O)N3CC(CCl)c4ccc([N+](=O)[O-])cc43)cc2c1` (stereo not drawn), the TGI with A498 renal was 2.82 µM; in the assay with ACHN renal, > 48.1 µM; in the assay on EKVX NSCLC, 48.8 µM; with NCI-H23 lung, > 24 µM; in the assay with OVCAR-8 ovarian, 4.36 µM; in the assay on PC-3 prostate it was 11.5 µM. In addition, the TGI with SK-MEL-2 melanoma was 2.96 µM; in the assay on SK-MEL-5 melanoma, 5.45 µM; with UO-31 renal, > 40.3 µM.
